According to patent US9980945B2, “Benzoisoxazole-substituted compounds as MGLUR4 allosteric potentiators, compositions, and methods of treating neurological dysfunction” (Vanderbilt University, priority 2015, dated 2018):

Molecular target: mGluR4 (UniProt Q14833)
Assay: mGluR4 potentiation assay (EC50 for potentiation at EC20 agonist; fluorometric plate reader, Ca2+ or thallium dye)
Type: cell-based
Conditions: potentiation of mGluR4; species of receptor not given
In short: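 CHO cells expressing human mGluR4, or HEK cells co-expressing rat mGluR4 and GIRK, loaded with Ca2+ or thallium dye. Potentiation EC50 and maximal potentiation from non-linear curve fitting; agonist-shift mode also run.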

| SMILES | EC50 |
| --- | --- |
| CC(c1noc2cc(Nc3n[nH]c4cccnc34)ccc12)C(F)F (stereo not shown) [Example 178, 3-(2,2-difluoro-1-methyl-ethyl)-N-(1H-pyrazolo[4,3-b]pyridin-3-yl)-1,2-benzoxazol-6-amine] | 1710 nM |
| CCCCNC(c1noc2cc(Nc3n[nH]c4cccnc34)ccc12)C(F)(F)F (stereo not shown) [Example 180, 3-[1-(butylamino)-2,2,2-trifluoro-ethyl]-N-(1H-pyrazolo[4,3-b]pyridin-3-yl)-1,2-benzoxazol-6-amine; 2,2,2-trifluoroacetic acid] | 810 nM |
| CC(C)(C)CNC(c1noc2cc(Nc3n[nH]c4cccnc34)ccc12)C(F)(F)F (stereo not shown) [Example 181, 3-[1-(2,2-dimethylpropylamino)-2,2,2-trifluoro-ethyl]-N-(1H-pyrazolo[4,3-b]pyridin-3-yl)-1,2-benzoxazol-6-amine; 2,2,2-trifluoroacetic acid] | 1500 nM |

The next lines start with the values.

| EC50 | SMILES |
| --- | --- |
| 588 nM | Cc1ccc(OCc2noc3cc(Nc4n[nH]c5cccnc45)ccc23)cn1 [Example 175, 3-[(6-methyl-3-pyridyl)oxymethyl]-N-(1H-pyrazolo[4,3-b]pyridin-3-yl)-1,2-benzoxazol-6-amine] |
| 767 nM | Fc1cncc(OCc2noc3cc(Nc4n[nH]c5cccnc45)ccc23)c1 [Example 176, 3-[(5-fluoro-3-pyridyl)oxymethyl]-N-(1H-pyrazolo[4,3-b]pyridin-3-yl)-1,2-benzoxazol-6-amine] |
| 890 nM | FCCc1noc2cc(Nc3n[nH]c4cccnc34)ccc12 [Example 177, 3-(2-fluoroethyl)-N-(1H-pyrazolo[4,3-b]pyridin-3-yl)-1,2-benzoxazol-6-amine] |
| 1990 nM | CCC(F)(F)c1noc2cc(Nc3n[nH]c4cccnc34)ccc12 [Example 179, 3-(1,1-difluoropropyl)-N-(1H-pyrazolo[4,3-b]pyridin-3-yl)-1,2-benzoxazol-6-amine] |
